Results: patent publication US8470776B2, “Conjugates of disorazoles and their derivatives with cell-binding molecules, novel disorazole derivatives, processes of manufacturing and uses thereof” (Aeterna Zentaris GmbH, priority 2006, dated 2013)
In brackets after ≈: the same amount, converted by molar mass. Several values for one entry are separate records, joined by “and”; a condition that tells them apart may be missing. Equal values may be shown once. Values belong to the molecule of their own block, whether it stands above or below them.

How the values were obtained:
[1] = system: human cervical carcinoma cell line KB/HeLa; experiment: cells; assay type: cell-based; conditions: XTT, 45 h incubation
Text: (§1) Selected compounds of the invention were investigated for their antiproliferative activity in a proliferation test on established tumor cell lines.
(§2) The test used determines the cellular dehydrogenase activity and makes possible a determination of the cell vitality and indirectly the cell count.
(§3) The cell lines used are the human cervical carcinoma cell line KB/HeLa (ATCC CCL17), the ovarian adenocarcinoma cell line SKOV-3 (ATCC HTB77), the human glioblastoma cell line SF-268 (NCI-503138) and the lung carcinoma cell line NCI-H460 (NCI-503473). In addition, for the investigation of the cell cycle-specific action of the compounds of the invention, an RKOp27 cell system was used (Schmidt M et al. Oncogene 2000, 19(20): 2423-2429). RKO is a human colon carcinoma cell line (ATCC CRL-2577), in which the cell cycle inhibitor p27^kip1 induced by means of the ecdysone expression system is expressed and can be led to a cell cycle arrest specifically in […]. A nonspecifically acting substance inhibits the proliferation independently of whether the RKO cell is or is not arrested in G1 or G2. Cell cycle-specific substances such as, for example, tubulin inhibitors are, however, only cytotoxic if cells are not arrested and the cell cycle is passed through.
(§4) The adherently growing tumor cell lines KB/HeLa, SKOV-3, SF-268 and NCI-H460 were cultured under standard conditions in an incubator at 37° C., 5% CO2 and 95% atmospheric humidity. On experimental day 1, the cells are detached using trypsin/EDTA and pelleted by centrifugation. Subsequently, the cell pellet is resuspended in the respective culture medium at the corresponding cell count and reacted in a 96-well microtiter plate. The plates are then cultured overnight in the incubator. The test substances are prepared as 1 mg/ml stock solutions in DMSO and diluted to the appropriate concentrations on experimental day 2 using culture medium. The substances in culture medium are then added to the cells and incubated in the incubator for 45 h. As a control, cells which are not treated with test substance are used. For the XTT assay, 1 mg/ml of XTT (sodium 3′-[1-(phenylaminocarbonyl)-3,4-tetrazolium]-bis(4-methoxy-6-nitro)benzenesulfonic acid) is dissolved in RPMI-1640 medium without Phenol Red. Additionally, a 0.383 mg/ml PMS (N-methyldibenzopyrazine methylsulfate) solution in phosphate-buffered saline solution (PBS) is prepared. On experimental day 4, 75 μl/well of XTT-PMS mixture is pipetted onto the cell plates which in the meantime have been incubated with the test substances for 45 h. For this, shortly before use, the XTT solution is mixed with the PMS solution in the ratio 50:1 (vol:vol). The cell plates are then incubated in the incubator for a further 3 h and the optical density (OD490 nm) is determined in a photometer. By means of the OD490 nm determined, the percentage inhibition is calculated relative to the control and plotted semilogarithmically in the form of a concentration-action curve. The IC50 is calculated by means of a regression analysis from the concentration-action curve using the program Graphpad Prism.

[2] = system: human glioblastoma cell line SF-268; experiment: cells; assay type: cell-based; conditions: XTT, 45 h incubation
Text: as §1, §2, §3, §4

[3] = system: lung carcinoma cell line NCI-H460; experiment: cells; assay type: cell-based, human; conditions: XTT, 45 h incubation
Text: as §1, §2, §3, §4

[4] = system: ovarian adenocarcinoma cell line SKOV-3; experiment: cells; assay type: cell-based, human; conditions: XTT, 45 h incubation
Text: as §1, §2, §3, §4

[5] = system: RKOp27 cells (human colon carcinoma cell line RKO), p27kip1 induced; experiment: cells; assay type: cell-based; conditions: p27kip1 induced with 3 μM muristerone A, XTT, 45 h
Text: as §3, §4
(§5) The assay is carried out in 96-well plates. […] By comparison of the activity on induced and noninduced cells, conclusions on the mechanism of action (cell cycle specificity) of the therapeutics can be drawn. […] cells are inoculated in approximately three-fold higher cell count, since division no longer takes place during the assay in comparison with uninduced cells (20000 cells/well induced, 6250 cells/well not induced). The controls are untreated cells (+/−induction). The induction is carried out with 3 μM muristerone A. On the 1st day, the cells are exposed (+/−muristerone A) and incubated at 37° C. for 24 h. On day 2, the test substance is added (control DMSO) and incubation is continued at 37° C. for a further 45 h before a standard XTT assay is carried out.

[6] = system: RKOp27 cells (human colon carcinoma cell line RKO), p27kip1 not induced; experiment: cells; assay type: cell-based; conditions: without expression of p27kip1, XTT, 45 h
Text: as §3, §4, §5

[7] = system: human GnRH receptor (hGnRH-R) positive cell line 5C6; experiment: GnRH-receptor dependent proliferation assay, 5C6; assay type: cell-based; conditions: 30 min exposure, vital cells vs untreated control = 100%
Method: (§6) The dose-dependent receptor-mediated inhibition of cell proliferation of selected compounds of the invention was investigated.
(§7) To study these effects a human GnRH receptor (hGnRH-R) positive cell line (5C6; Beckers et al., Eur. J. Biochem. 1995, 231: 535-543) and an hGnRH-R negative cell line (LTK^−; ECACC No. 85011432) was used.
(§8) Respective cells were exposed to 1 mL culture medium in 24 well multi-titer-plates (MTPs) with a cell number of 15000 cells per well. The cell number is adjusted in such a way that after 5 days of testing the untreated control cells are still in the exponential growth phase.
(§9) Test compounds are given to the cultured cells after 4 hours of initial growth (adherence) in a volume of 100 μL to yield the final concentrations given in table 2.
(§10) After 30 min of incubation at 37° C. the entire culture medium is sucked off and the cells are washed twice with culture medium without test compounds. After the washing the cells are placed into an incubator (at 37° C., 5% CO2 and 95% atmospheric humidity) and incubated for further 4 days.
(§11) For the determination of the cell number after incubation the cells are detached using trypsin/EDTA and centrifuged. The number of vital cells and the total cell number are counted using a Vi-Cell Analyzer (Beckman Coulter).
(§12) The number of vital cells is analyzed in comparison with untreated control cells (=100%). Only cell groups (respective wells) are considered of which the total cell viability is more than 90%, i.e. inhibition of cell proliferation by unspecific toxicity can be excluded.
(§13) The proliferation status of untreated control cells after 96 hours is set to 100%.

[8] = system: hGnRH-R negative cell line LTK−; experiment: GnRH-receptor dependent proliferation assay, LTK-; assay type: cell-based; conditions: 30 min exposure, vital cells vs untreated control = 100%
Method: as §6, §7, §8, §9, §10, §11, §12, §13

Molecule: COc1cccc2c1C(=O)c1c(O)c3c(c(O)c1C2=O)C[C@@](O)(C(=O)COC(=O)CCCC(=O)NCCCC[C@@H](NC(=O)[C@H](Cc1ccc(O)cc1)NC(=O)[C@H](CO)NC(=O)[C@H](Cc1c[nH]c2ccccc12)NC(=O)[C@H](Cc1c[nH]cn1)NC(=O)[C@@H]1CCC(=O)N1)C(=O)N[C@@H](CC(C)C)C(=O)N[C@@H](CCCNC(=N)N)C(=O)N1CCC[C@H]1C(=O)NCC(N)=O)C[C@@H]3O[C@H]1C[C@H](N)[C@H](O)[C@H](C)O1 [AN-152, reference compound]
IC50 KB/HELA [1]: 0.871 µg/mL (≈ 0.46 µM)
IC50 SF-268 [2]: 1.258 µg/mL (≈ 0.665 µM)
IC50 NCI-H460 [3]: 0.558 µg/mL (≈ 0.295 µM)
IC50 SKOV-3 [4]: 1.238 µg/mL (≈ 0.654 µM)
IC50 RKOp27 induced [5]: 0.632 µg/mL (≈ 0.334 µM)
IC50 RKOp27 [6]: 0.587 µg/mL (≈ 0.31 µM)
proliferation status after 96 hours, cell line 5C6, 100 nM [7]: 43.9% and 42.1%
proliferation status after 96 hours, cell line LTK−, 100 nM [8]: 102.3% and 101.3%

Molecule: C/C=C/[C@H](OC(=O)CCC(=O)NCCCC[C@H](NC(=O)[C@H](Cc1ccc(O)cc1)NC(=O)[C@H](CO)NC(=O)[C@H](Cc1c[nH]c2ccccc12)NC(=O)[C@H](Cc1cnc[nH]1)NC(=O)[C@@H]1CCC(=O)N1)C(=O)N[C@@H](CC(C)C)C(=O)N[C@@H](CCCNC(=N)N)C(=O)N1CCC[C@H]1C(=O)NCC(N)=O)C(C)(C)[C@@H]1C\C=C/C=C\C=C\[C@H](OC)Cc2nc(co2)C(=O)O[C@H](C(C)(C)[C@H](/C=C/C)OC(=O)CCC(=O)NCCCC[C@H](NC(=O)[C@H](Cc2ccc(O)cc2)NC(=O)[C@H](CO)NC(=O)[C@H](Cc2c[nH]c3ccccc23)NC(=O)[C@H](Cc2cnc[nH]2)NC(=O)[C@@H]2CCC(=O)N2)C(=O)N[C@@H](CC(C)C)C(=O)N[C@@H](CCCNC(=N)N)C(=O)N2CCC[C@H]2C(=O)NCC(N)=O)C/C=C\[C@H]2O[C@H]2/C=C/C=C\c2nc(co2)C(=O)O1 [compound 15, Disorazole A1 Bis Hemi Succinyl [D-Lys^6]LHRH]
IC50 KB/HELA [1]: >3.16 µg/mL
IC50 SF-268 [2]: >3.16 µg/mL
IC50 NCI-H460 [3]: >3.16 µg/mL
IC50 SKOV-3 [4]: >3.16 µg/mL
IC50 RKOp27 induced [5]: >3.16 µg/mL
IC50 RKOp27 [6]: ca. 3.16 μg/ml
proliferation status after 96 hours, cell line 5C6, 0.1 nM [7]: 95.1%
proliferation status after 96 hours, cell line 5C6, 1 nM [7]: 98.6%
proliferation status after 96 hours, cell line 5C6, 10 nM [7]: 66.6%
proliferation status after 96 hours, cell line 5C6, 100 nM [7]: 43.0%
proliferation status after 96 hours, cell line LTK−, 0.1 nM [8]: 108.6%
proliferation status after 96 hours, cell line LTK−, 1 nM [8]: 111.3%
proliferation status after 96 hours, cell line LTK−, 10 nM [8]: 108.0%
proliferation status after 96 hours, cell line LTK−, 100 nM [8]: 101.7%

Molecule: C/C=C/C(OC(=O)CCCC(=O)NCCCC[C@H](NC(=O)[C@H](Cc1ccc(O)cc1)NC(=O)[C@H](CO)NC(=O)[C@H](Cc1c[nH]c2ccccc12)NC(=O)[C@H](Cc1cnc[nH]1)NC(=O)[C@@H]1CCC(=O)N1)C(=O)N[C@@H](CC(C)C)C(=O)N[C@@H](CCCNC(=N)N)C(=O)N1CCC[C@H]1C(=O)NCC(N)=O)C(C)(C(=O)OC)C1C\C=C/C=C/C=C/c2nc(co2)C(=O)OC(C(C)(C(=O)OC)C(/C=C/C)OC(=O)CCCC(=O)NCCCC[C@H](NC(=O)[C@H](Cc2ccc(O)cc2)NC(=O)[C@H](CO)NC(=O)[C@H](Cc2c[nH]c3ccccc23)NC(=O)[C@H](Cc2cnc[nH]2)NC(=O)[C@@H]2CCC(=O)N2)C(=O)N[C@@H](CC(C)C)C(=O)N[C@@H](CCCNC(=N)N)C(=O)N2CCC[C@H]2C(=O)NCC(N)=O)C\C=C/C=C/C=C/c2nc(co2)C(=O)O1 (stereo partly drawn) [compound 17, Disorazole Z Bis Hemi Glutaryl [D-Lys^6]LHRH]
IC50 KB/HELA [1]: >3.16 µg/mL
IC50 SF-268 [2]: >3.16 µg/mL
IC50 NCI-H460 [3]: >3.16 µg/mL
IC50 SKOV-3 [4]: >3.16 µg/mL
IC50 RKOp27 induced [5]: >3.16 µg/mL
IC50 RKOp27 [6]: >3.16 µg/mL
proliferation status after 96 hours, cell line 5C6, 0.1 nM [7]: 95.5%
proliferation status after 96 hours, cell line 5C6, 1 nM [7]: 85.9%
proliferation status after 96 hours, cell line 5C6, 10 nM [7]: 58.5%
proliferation status after 96 hours, cell line 5C6, 100 nM [7]: 41.7%
proliferation status after 96 hours, cell line LTK−, 0.1 nM [8]: 100.9%
proliferation status after 96 hours, cell line LTK−, 1 nM [8]: 99.8%
proliferation status after 96 hours, cell line LTK−, 10 nM [8]: 98.8%
proliferation status after 96 hours, cell line LTK−, 100 nM [8]: 98.0%

IC50 ([1]; Homo sapiens, HeLa, read-out: IC50 KB/HELA): 0.32 µg/mL (≈ 0.589 µM)
IC50 ([2]; Homo sapiens, SF-268, read-out: IC50 SF-268): 0.305 µg/mL (≈ 0.561 µM)
IC50 ([3]; Homo sapiens, NCI-H460, read-out: IC50 NCI-H460): 0.105 µg/mL (≈ 0.193 µM)
IC50 ([4]; Homo sapiens, SK-OV-3, read-out: IC50 SKOV-3): 0.347 µg/mL (≈ 0.638 µM)
IC50 ([5]; Homo sapiens, RKOp27, read-out: IC50 RKOp27 induced): 0.124 µg/mL (≈ 0.228 µM)
IC50 ([6]; Homo sapiens, RKOp27, read-out: IC50 RKOp27): 0.082 µg/mL (≈ 0.151 µM)
Molecule: COc1cccc2c1C(=O)c1c(O)c3c(c(O)c1C2=O)C[C@@](O)(C(=O)CO)C[C@@H]3O[C@H]1C[C@H](N)[C@H](O)[C@H](C)O1 [doxorubicin, reference compound]

Molecule: Disorazole E1 Mono Hemi Succinyl [D-Lys^6]LHRH, Both Regio-Isomers [compounds 13/14]
IC50 KB/HELA [1]: 0.01891 µg/mL
IC50 SF-268 [2]: 0.05566 µg/mL
IC50 NCI-H460 [3]: 0.0128 µg/mL
IC50 SKOV-3 [4]: 0.01685 µg/mL
IC50 RKOp27 induced [5]: >3.16 µg/mL
IC50 RKOp27 [6]: 0.01724 µg/mL
proliferation status after 96 hours, cell line LTK−, 0.1 nM [8]: 98.6%
proliferation status after 96 hours, cell line LTK−, 1 nM [8]: 98.8%
proliferation status after 96 hours, cell line LTK−, 10 nM [8]: 93.2%
proliferation status after 96 hours, cell line LTK−, 100 nM [8]: 27.0%
